{"source": "patent US9943528B2", "about": "(MAPREG, priority 2016, dated 2018)", "key": {"MAP2": {"test_system": "MAP2", "experiment": "Binding (affinity) by displacement of PREG-3H"}, "GABA (non-selective)": {"test_system": "GABA (non-selective)", "experiment": "CNS receptor binding assay, GABA", "conditions": "MAP4343 10 μM; [3H] GABA; rat cerebral cortex", "from_the_text": "(§1) MAP4343 has been screened for in vitro affinity to 80 different CNS neurotransmitters receptors using various validated binding assays."}, "PC12 cells": {"test_system": "PC12 cells", "conditions": "cited from earlier work"}, "Wistar Kyoto (WKY) rats [1]": {"test_system": "Wistar Kyoto (WKY) rats", "experiment": "Neurogenesis in dentate gyrus of hippocampus (BrdU/NeuN) in WKY rats", "format": "in vivo, rat", "conditions": "chronic MAP4343 15 mg/kg, s.c., 24 days, FIG. 9C", "procedure": "Wistar Kyoto (WKY) rats are considered as a model of treatment-resistant depression, while Wistar (WI) rats are used as control strain of WKY rats. During this experiment both WI and WKY rats were administered with MAP4343 (15 mg/Kg), subcutaneously (s.c.) for 24 days. Behavioral tests were performed at during the last week of treatment, and rats were finally sacrificed for addressing neurogenesis in Gyrus dentate of hippocampus using histological experiments. Organization of this protocol is depicted in FIG. 7.\nMAP4343 was diluted in sesame oil, and then administered subcutaneously (s.c.) at the dose of 15 mg/kg during 24 days. The vehicle group received only the sesame oil (1 ml/kg) in the similar conditions.\nInjections of BrdU were performed twice at D0, 24 and 22 hours before the beginning of treatment. All animals were equally given two injections of BrdU (75 mg/kg, dissolved in saline solution intraperitoneally), at two hours pulse-chase interval. […]\nNeurogenesis in each dentate gyrus was manually measured by quantification of positive cells co-labelled with BrdU/NeuN, using a microscope equipped with epifluorescence (Zeiss Axiovert 200, objective 40×). Total number of new neurons in the entire dentate gyrus was estimated by multiplying the measured number by 8 (that corresponds to the number of unused sections separating each coronal sections used to count the newly-formed neurons). […]"}, "NMDA PCP site": {"test_system": "NMDA PCP site", "experiment": "CNS receptor binding assay, NMDA PCP site", "conditions": "MAP4343 10 μM; [3H] TCP; rat cerebral cortex", "from_the_text": "as §1"}, "Wistar Kyoto (WKY) rats [2]": {"test_system": "Wistar Kyoto (WKY) rats", "experiment": "Open-field arena (OFA) in WKY rats, acute treatment", "format": "in vivo, rat", "conditions": "MAP4343 10 mg/kg s.c., fluoxetine 10 mg/kg i.p., ketamine 30 mg/kg i.p.", "procedure": "After a 6-day period of acclimatization, all experimental groups received daily successive subcutaneous (250 μl per rat) and intraperitoneal (1 ml/kg) injections. WI rats received injection of vehicle (sesame oil+saline) while WKY rats were randomly assigned to […] experimental groups, as follow: KWY rats receiving only vehicle (sesame oil+saline) and WKY rats treated with MAP4343 (10 mg/kg, s.c.; rats received in parallel i.p. injections of saline), fluoxetine (10 mg/kg i.p., rats received in parallel s.c. injections of sesame oil) or ketamine (30 mg/kg, i.p.; rats received in parallel s.c. injections of sesame oil) (see FIG. 3).\nAfter, a 6-day period of acclimatization, the acute phase of treatment started for 4 days during behavioral tests were performed (FIG. 3). All animals were injected 1 h 30 before the starting of behavioral test.\nThe animals were individually placed in the open field arena (OFA) (70×100×70 cm), with a central square (35×50 cm), located in a 50 lux illuminated room and videotaped during 3 min using a computerized system (VideoTrack V2.5, ViewPoint, Lyon, France).\nOFA allows firstly the evaluation of total locomotor activity (LMA) thereby measuring the total distance travelled in the arena (in cm). Secondly, measurements of the activity in the center of the arena like (i) the number of entries in the center of arena and (ii) the total time spent in the center of arena (in sec) provide cues of anxiety-like behavior (Prut and Belzung, 2003). All these behavioral parameters were instantaneously measured automatically with the VideoTrack V2.5 software from the videos."}}}
{"smiles": "CO[C@H]1CC[C@@]2(C)C(=CC[C@H]3[C@@H]4CC[C@H](C(C)=O)[C@@]4(C)CC[C@@H]32)C1", "note": "[MAP4343, 3β-methoxy-pregna-5-ene-20-one]", "values": [{"measurement": "Affinity", "setting": "MAP2", "result": "100% of PREG"}, {"measurement": "% Inhibition of control specific binding", "setting": "GABA (non-selective)", "result": 2, "unit": "%"}, {"measurement": "neurite extension", "setting": "PC12 cells", "result": "enhance neurite extension"}, {"measurement": "number of newly-formed neurons (BrdU and Neu-N) in dentate gyrus, change vs WKY receiving only vehicle", "setting": "Wistar Kyoto (WKY) rats [1]", "result": "+71%"}, {"measurement": "% Inhibition of control specific binding", "setting": "NMDA PCP site", "result": "−10", "unit": "%"}, {"measurement": "locomotor activity (total distance travelled in the open-field arena), change vs WKY receiving vehicle", "setting": "Wistar Kyoto (WKY) rats [2]; 3 min, FIG. 5A", "result": "did not modify significantly the locomotor activity"}, {"measurement": "number of entries in the central square of OFA, change vs WKY receiving only vehicle", "setting": "Wistar Kyoto (WKY) rats [2]; FIG. 5B", "result": "+289%"}, {"measurement": "time spent in the center of open-field vs WKY receiving vehicle", "setting": "Wistar Kyoto (WKY) rats [2]; FIG. 5C", "result": "did not modify the low time spent in central square of arena"}]}
